According to paper PMC4907692, “Engineering vanilloid-sensitivity into the rat TRPV2 channel” (eLife, 2016):
“And” between values parts separate entries of the source, which are not always exact repeats. Identical values can stand only once.

Assays:
[1] = biological target: T1, full-length 1D4-tagged TRPV1 (Rattus norvegicus, UniProt O35433); assay: 3H-RTx binding to S. cerevisiae membranes containing 1D4-tagged TRPV1; conditions: for Hill slope (nH): membranes
T1 construct: made in house; host or cells: S. cerevisiae BJ5457, YEpHIS vector, PMA1 promoter; isolated membranes
Excerpt: The polymodal activation of TRPV1 has been widely conceptualized using allosteric models wherein binding of activators (such as vanilloids, protons, DkTx or voltage) are allosterically coupled to opening of the pore ([Brauchi et al., 2004]; [Jara-Oseguera et al., 2016]; [Matta and Ahern, 2007]). The allosteric nature of these interactions has begun to be explored using electrophysiological measurements of channel function ([Jara-Oseguera et al., 2016]; [Yao et al., 2010]), but has thus far not been investigated biochemically. We therefore tested whether binding of DkTx can enhance the affinity of TRPV1 for RTx, which would be predicted by an allosteric model wherein the two activators promote opening by binding more tightly to the open state. For these experiments we used a 1D4-tagged TRPV1 construct where expression in S. cerevisiae was driven by a constitutive promoter and we performed binding assays on yeast membranes where the vanilloid would have free access to the channel protein (see Methods). Under these conditions, we measured a Kd for RTx binding to 1D4-tagged TRPV1 of 0.6 nM under control conditions, about ten fold higher affinity than what we measured in intact cells using GFP-tagged TRPV1. When we measured the concentration-dependence of RTx binding to 1D4-tagged TRPV1 in the presence of DkTx, we observed that the tarantula toxin enhanced the affinity for RTx by about 3-fold (Figure 2A). The effects of DkTx were concentration-dependent (Figure 2B) and were observed independent of whether the binding assay was performed at 37°C (our standard temperature) or at 30°C (Figure 2A).
The full-length TRPV1 and TRPV2 channels with 1D4 affinity tags (TETSQVAPA) on their C-termini were cloned into the YEpHIS vector and expressed in the BJ5457 strain of S. cerevisiae using the strong constitutively active PMA1 promoter, as previously described ([Moiseenkova-Bell et al., 2008]). After 48 hr of expression at 30°C in YPD media, cells were harvested by centrifugation and re-suspended in PBS buffer, supplemented with complete protease inhibitor cocktail (Roche, Indianapolis, IN) and 4-amidinophenylmethanesulfonyl fluoride hydrochloride (APMSF) (Sigma-Aldrich, St. Louis, MO). Cells were broken by passing through an Avestin homogenizer at the pressure of 35 kpsi, cell lysate was cleared by centrifugation at 8,000 g for 15 min and membranes were isolated by ultracentrifugation at 190,000 g for 1 hr. Membrane pellets were re-suspended in PBS buffer supplemented with protease inhibitors and 200 mM sucrose, flash-frozen in liquid nitrogen and stored at -70°C until RTx binding measurements.
S. cerevisiae cells overexpressing TRPV1 constructs to be used in ligand binding assays on intact cells (Figure 1E,F) were grown as for small scale expression trials. 24 hr after protein induction cells were spun down at 4000g, the supernatant was removed and the pellet resuspended in 1x PBS, normalizing OD600 to 75 for each sample, and aliquoted for storage at -80°C. ^3H-RTx binding assays on cells were performed at 37°C as previously described ([Feng et al., 2015]), but where non-specific binding of RTx was measured using cells expressing GFP alone. The binding of RTx to TRPV1 and TRPV2 in membranes (e.g. Figure 2A,B and 5C) was performed at 37°C unless otherwise stated using membranes prepared from large scale protein preparations of S. cerevisiae containing rat TRPV1 and TRPV2 with a 1D4 tag expressed using a constitutive promoter as in [Moiseenkova-Bell et al., 2008]. Data for binding of RTx to membranes was corrected for non-specific binding, determined using either excess non-radioactive ligand or heat inactivation of the protein, as previously described ([Feng et al., 2015]). The TRPV1-activating double-knot toxin (DkTx) was produced recombinantly, folded in vitro and purified as previously described ([Bae et al., 2012]). Yeast membranes were incubated with DkTx solution for 1 hr at 4°C with gentle agitation prior to undertaking RTx binding assays. […]

TRPV2 F472S/L507M = biological target: T2, TRPV2 F472S/L507M (Rattus norvegicus, UniProt Q9WUD2, F472S/L507M); assay: Two-electrode voltage-clamp in Xenopus oocytes, TRPV2 F472S/L507M; type: cell-based; conditions: 100 nM RTx
T2 construct: expressed in transfected cells; host or cells: Xenopus oocytes (cRNA injection)
Excerpt: (§1) To further investigate the putative vanilloid binding pocket in TRPV1, we inspected the cryo-EM structure of TRPV1, looking for residues that are located nearby to the putative RTx density (Figure 1B; regions/residues highlighted in yellow) and that differ between TRPV1 and TRPV2 channels (Figure 3—figure supplement 1; regions highlighted in magenta). […] To quantify the contribution of each of these residues to TRPV1 channel activation by RTx under our experimental conditions, we mutated each to the corresponding residue in TRPV2. We then expressed each construct in oocytes and used the two electrode voltage-clamp technique to study activation by RTx and by the non-specific TRPV channel activator 2-APB. We recorded time courses for channel activation by each agonist while stepping the membrane potential from −60 to +60 mV every 3 s from a holding potential of 0 mV using an external recording solution containing 100 mM KCl (internal K^+ concentration in a healthy oocyte is 100 mM) (Figure 3A, left). We also recorded current-voltage (I-V) relations by stepping over a wider range of voltages in the absence and presence of activators, or in the presence of ruthenium red (RR), a non-specific inhibitor of TRP channels (Figure 3A, right). […]

TRPV2 F472S/L510T = biological target: T3, TRPV2 F472S/L510T (Rattus norvegicus, UniProt Q9WUD2, F472S/L510T); assay: Two-electrode voltage-clamp in Xenopus oocytes, TRPV2 F472S/L510T; type: cell-based; conditions: 100 nM RTx
T3 construct: expressed in transfected cells; host or cells: Xenopus oocytes (cRNA injection)
Excerpt: as §1

T1 sequence (O35433 whole entry): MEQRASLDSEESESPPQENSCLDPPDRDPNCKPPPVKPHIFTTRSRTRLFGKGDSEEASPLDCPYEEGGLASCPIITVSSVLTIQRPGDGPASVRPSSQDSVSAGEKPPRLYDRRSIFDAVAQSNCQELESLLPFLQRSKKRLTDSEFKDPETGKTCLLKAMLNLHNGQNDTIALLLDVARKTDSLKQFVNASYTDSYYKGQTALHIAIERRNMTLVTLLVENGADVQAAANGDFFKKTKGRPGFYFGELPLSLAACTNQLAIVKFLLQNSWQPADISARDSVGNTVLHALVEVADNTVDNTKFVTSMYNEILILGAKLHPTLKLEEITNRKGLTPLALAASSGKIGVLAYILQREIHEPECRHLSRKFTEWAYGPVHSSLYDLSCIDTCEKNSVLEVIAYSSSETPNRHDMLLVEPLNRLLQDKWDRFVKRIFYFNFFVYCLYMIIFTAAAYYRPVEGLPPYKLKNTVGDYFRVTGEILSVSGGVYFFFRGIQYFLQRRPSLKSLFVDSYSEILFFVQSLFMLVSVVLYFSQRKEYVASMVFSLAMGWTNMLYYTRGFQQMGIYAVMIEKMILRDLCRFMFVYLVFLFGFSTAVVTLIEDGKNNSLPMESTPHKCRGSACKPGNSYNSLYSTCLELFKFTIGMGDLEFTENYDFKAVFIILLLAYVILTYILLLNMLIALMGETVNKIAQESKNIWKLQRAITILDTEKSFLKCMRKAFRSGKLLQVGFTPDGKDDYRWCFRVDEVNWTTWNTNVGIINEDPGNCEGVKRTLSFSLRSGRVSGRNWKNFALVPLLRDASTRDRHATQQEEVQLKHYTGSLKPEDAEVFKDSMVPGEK
T2 sequence (Q9WUD2 whole entry F472S/L507M): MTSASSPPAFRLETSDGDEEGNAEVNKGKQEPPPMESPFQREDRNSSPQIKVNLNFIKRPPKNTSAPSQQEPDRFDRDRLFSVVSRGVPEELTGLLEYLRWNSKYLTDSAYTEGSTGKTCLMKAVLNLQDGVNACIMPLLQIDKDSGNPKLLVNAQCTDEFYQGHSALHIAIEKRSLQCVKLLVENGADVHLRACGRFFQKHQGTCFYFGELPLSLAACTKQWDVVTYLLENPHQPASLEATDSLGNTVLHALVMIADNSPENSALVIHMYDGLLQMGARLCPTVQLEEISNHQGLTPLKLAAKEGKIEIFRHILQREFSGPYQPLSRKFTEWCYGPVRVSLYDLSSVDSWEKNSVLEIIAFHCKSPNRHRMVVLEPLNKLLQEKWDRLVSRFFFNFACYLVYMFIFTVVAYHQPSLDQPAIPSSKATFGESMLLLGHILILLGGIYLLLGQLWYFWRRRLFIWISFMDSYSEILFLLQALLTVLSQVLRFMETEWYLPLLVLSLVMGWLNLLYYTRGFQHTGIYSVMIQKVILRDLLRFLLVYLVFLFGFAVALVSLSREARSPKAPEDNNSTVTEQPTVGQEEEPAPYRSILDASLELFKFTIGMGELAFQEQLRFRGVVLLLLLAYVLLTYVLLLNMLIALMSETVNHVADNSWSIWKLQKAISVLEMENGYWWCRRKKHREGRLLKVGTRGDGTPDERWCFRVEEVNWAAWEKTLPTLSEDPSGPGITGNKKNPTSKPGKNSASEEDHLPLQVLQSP
T3 sequence (Q9WUD2 whole entry F472S/L510T): as the sequence (Q9WUD2 whole entry F472S/L507M) above, with M507L, L510T counted along it

C=C(C)[C@]12C[C@@H](C)[C@@]34O[C@](Cc5ccccc5)(O[C@@H]1[C@@H]3C=C(COC(=O)Cc1ccc(O)c(OC)c1)C[C@]1(O)C(=O)C(C)=C[C@@H]41)O2 [RTx, resiniferatoxin]
Kd ([1]; Kd of 3H-RTx binding (Hill fit)): 0.53 nM and 0.8 nM | Hill slope (nH) ([1]; control (no DkTx), 30°C): 1.1 | Hill slope (nH) ([1]; control (no DkTx), 37°C): 1.24 | Hill slope (nH) ([1]; in the presence of DkTx (0.7 µM), 30°C): 1 | Hill slope (nH) ([1]; in the presence of DkTx (0.7 µM), 37°C): 0.92 | channel activation by RTx (TRPV2 F472S/L507M): sensitive to RTx | channel activation by RTx (TRPV2 F472S/L510T): sensitive to RTx
